From patent US10543212B2, “Substituted amines for treating cardiac diseases” (Cardurion Pharmaceuticals, LLC, priority 2017, dated 2020) come the findings set out here.

In test [1] the target is T1, Human full-length CaMKIIδ (Homo sapiens, UniProt Q13557).
T1 construct: Human full-length CaMKIIδ (Cat #02-111) was obtained from Carna Biosciences; GST; purchased Carna Biosciences 02-111
Put plainly: Human CaMKII enzyme inhibition assay (radiometric kinase assay). To be noted: 3 μM compound; 500 nM ATP; 0.5 nM CaMKIIδ; read-out: CaMKIIδ inhibitory activity (%) at 3 μM. It is filed as biochemical. The essentials:
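Radiometric [γ-33P]ATP assay: 0.5 nM CaMKIIδ and 0.1 μM autophosphorylation peptide in HEPES pH 7.5 with Ca2+/calmodulin, with 500 nM ATP. Enzyme was preincubated with compound for 5 min, then reacted 60 min at RT. Value is % inhibition at 3 μM compound, relative to no-enzyme and no-inhibitor controls.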

For test [2], the target named is T2, Full-length, GST-tagged, human CaMKIIδ (Homo sapiens, UniProt Q13557).
T2 construct: Full-Length, Glutathione-S-Transferase(GST)-Tagged, Human CaMKIIδ was purchased from Carna Biosciences; purchased Carna Biosciences 02-111
The test can be described thus: CaMKIIδ binding assay (TR-FRET with BODIPY-labeled probe ligand). The essentials:
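Compounds were tested as 4-fold, eight-point series for 1 hr at room temperature, and IC50 was obtained by logistic fitting against a 3 μM parent-compound control. Signal came from displacement of a 300 nM BODIPY ligand from 0.5 nM GST-CaMKIIδ, detected via Tb-anti-GST in calmodulin/Ca2+ (pH 7.6).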
A general note: TR-FRET usually uses a lanthanide donor and a delayed reading to cut background.

The subject of test [3] is phosphorylation of CaMKII-specific site of phospholamban (Thr17, PLN) in the heart. The test can be described thus: In vivo cardiac CaMKII inhibition (P-PLN Thr17 in rat left ventricle, Western blotting). The following applies: po, male SD rat left ventricle, vs vehicle-treated group, read-out: Reduction rate of P-PLN; for inhibition in vivo at 30 mg/kg: 30 mg/kg p.o. The procedure:
To evaluate potency of test compounds to inhibit cardiac CaMKII kinase in vivo, phosphorylation levels of CaMKII-specific sites of phospholamban (Thr17, PLN) were measured in the heart of rats administered with test compounds at various doses.
Test compounds were suspended in 0.5% [w/v] methylcellulose/water solution and administered (10 or 30 mg/kg) to male CD (SD) IGS rat (6-8 weeks old, n=4) by the p.o. route (5 mL/kg). At 2-4 hours after the administration, rats were sacrificed and the hearts were harvested. After washing the isolated hearts with ice-cold saline, connective tissues were removed on ice, and the isolated left ventricle were frozen into liquid nitrogen gas and stored at −80° C.
The left ventricle samples were homogenized in RIPA-buffer containing phosphatase inhibitors and protease inhibitors. Samples were analyzed by Western blotting using anti-P-PLN (Thr17, Santa Cruz Biotechnology, sc-17024-R) antibody. The band intensities were quantified using an imaging system and were normalized relative to the vehicle-treated group.

Setting [4] is: Table 2, activity class for CaMKIIδ.
The mark [5] stands for this setting: Table 2, CaMKIIδ binding assay, activity given as class A/B/C.
Where [6] appears, read: CaMKIIδ binding assay, activity class per Table 2.

Like-named read-outs stand apart in the source and are kept apart here.

T2 sequence (Q13557 1-478 isoform Q13557-12): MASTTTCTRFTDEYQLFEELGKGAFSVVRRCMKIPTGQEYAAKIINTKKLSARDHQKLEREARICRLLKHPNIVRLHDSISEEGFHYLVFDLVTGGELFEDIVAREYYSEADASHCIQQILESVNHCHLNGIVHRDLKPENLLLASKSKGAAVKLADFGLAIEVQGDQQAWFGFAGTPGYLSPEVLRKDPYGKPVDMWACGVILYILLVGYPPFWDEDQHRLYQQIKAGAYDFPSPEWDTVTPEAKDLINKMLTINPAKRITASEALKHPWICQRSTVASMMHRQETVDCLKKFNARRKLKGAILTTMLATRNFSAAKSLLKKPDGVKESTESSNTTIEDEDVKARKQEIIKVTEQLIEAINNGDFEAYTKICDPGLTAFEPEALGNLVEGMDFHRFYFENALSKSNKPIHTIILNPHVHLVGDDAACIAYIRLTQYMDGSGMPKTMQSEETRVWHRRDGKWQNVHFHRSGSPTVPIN

Turning to `C[C@@H](Cn1cnnn1)Oc1cc(-c2cnc(Nc3cn(C)nc3C(F)(F)F)nc2)ccc1C#N` [Example 380, 4-(2-((1-methyl-3-(trifluoromethyl)-1H-pyrazol-4-yl)amino)pyrimidin-5-yl)-2-(((2S)-1-(1H-tetrazol-1-yl)propan-2-yl)oxy)benzonitrile], in test [1], the inhibition at 3 µM is 99%.

For the compound `Cn1cc(Nc2ncc(-c3ccc(C#N)c(O[C@@H](CO)Cn4cccn4)c3)cn2)cn1` [Example 402, 2-(((2R)-1-hydroxy-3-(1H-pyrazol-1-yl)propan-2-yl)oxy)-4-(2-((1-methyl-1H-pyrazol-4-yl)amino)pyrimidin-5-yl)benzonitrile], the inhibition at 3 µM in test [1] was determined as 82%.

As to `C[C@@H](Cn1cnnn1)Oc1cc(-c2cnc(Nc3cnn(C)c3)nc2)ccc1C#N` [Example 410, 4-(2-((1-methyl-1H-pyrazol-4-yl)amino)pyrimidin-5-yl)-2-(((2S)-1-(1H-tetrazol-1-yl)propan-2-yl)oxy)benzonitrile], the inhibition at 3 µM in test [1] is 99%.

For the compound `C[C@@H](Cn1ncnn1)Oc1cc(-c2cnc(Nc3cnn(C)c3)nc2)ccc1C#N` [Example 411, 4-(2-((1-methyl-1H-pyrazol-4-yl)amino)pyrimidin-5-yl)-2-(((2S)-1-(2H-tetrazol-2-yl)propan-2-yl)oxy)benzonitrile], the inhibition at 3 µM in test [1] was determined as 93%.

Take `C[C@@H](Cc1ccn[nH]1)Oc1cc(-c2cnc(Nc3cnn(C)c3)nc2)ccc1C#N` [Example 412, 4-(2-((1-methyl-1H-pyrazol-4-yl)amino)pyrimidin-5-yl)-2-(((2S)-1-(1H-pyrazol-5-yl)propan-2-yl)oxy)benzonitrile]: in test [1], the inhibition at 3 µM came out at 96%.

For the compound `C[C@@H](O)Cn1cc(Nc2ncc(-c3ccc(C#N)c(O[C@@H](C)Cn4cncn4)c3)cn2)cn1` [Example 416, 4-(2-((1-((2R)-2-hydroxypropyl)-1H-pyrazol-4-yl)amino)pyrimidin-5-yl)-2-(((2S)-1-(1H-1,2,4-triazol-1-yl)propan-2-yl)oxy)benzonitrile], the inhibition at 3 µM in test [1] is 98%.

The IC50 is the concentration at which inhibition is half-maximal. In test [2] (CaMKIIδ binding assay, results of Table 2), `C[C@@H](Cn1cnnn1)Oc1cc(-c2cnc(Nc3cn(C4CCN(C5CCOCC5)CC4)nc3C(F)(F)F)nc2)ccc1Cl` [Example 484, (S)-5-(3-((1-(1H-tetrazol-1-yl)propan-2-yl)oxy)-4-chlorophenyl)-N-(1-(1-(tetrahydro-2H-pyran-4-yl)piperidin-4-yl)-3-(trifluoromethyl)-1H-pyrazol-4-yl)pyrimidin-2-amine] yielded an IC50 of under 10 nM. For the same compound, the inhibition in vivo at 30 mg/kg in test [3] (2 hr after administration) is over 50%.

`C[C@@H](Cn1cnnn1)Oc1cc(-c2cnc(Nc3cn(C4CCN(C5CCOCC5)CC4)nc3OCC(F)(F)F)nc2)ccc1Cl` [Example 677, (S)-5-(3-((1-(1H-tetrazol-1-yl)propan-2-yl)oxy)-4-chlorophenyl)-N-(1-(1-(tetrahydro-2H-pyran-4-yl)piperidin-4-yl)-3-(2,2,2-trifluoroethoxy)-1H-pyrazol-4-yl)pyrimidin-2-amine] returned an IC50 in test [2] (setting [4]) of under 10 nM. In addition, the inhibition in vivo at 30 mg/kg in test [3] (2 hr after administration) is over 50%.

In turn, `C[C@@H](Cn1cnnn1)Oc1cc(-c2cnc(Nc3cn([C@H]4CC[C@H](N5CCOCC5)CC4)nc3C(F)(F)F)nc2)ccc1Cl` [Example 695, 5-(3-(((S)-1-(1H-tetrazol-1-yl)propan-2-yl)oxy)-4-chlorophenyl)-N-(1-(trans-4-morpholinocyclohexyl)-3-(trifluoromethyl)-1H-pyrazol-4-yl)pyrimidin-2-amine] yielded an IC50 in test [2] (setting [4]) of under 10 nM. Besides, in test [3] (2 hr after administration), the inhibition in vivo at 30 mg/kg was over 50%.

In turn, `C[C@@H](Cn1cnnn1)Oc1cc(-c2cnc(Nc3cn([C@H]4CC[C@H](N5CCOCC5)CC4)nc3OCC(F)(F)F)nc2)ccc1Cl` [Example 772, 5-(3-(((S)-1-(1H-tetrazol-1-yl)propan-2-yl)oxy)-4-chlorophenyl)-N-(1-(trans-4-morpholinocyclohexyl)-3-(2,2,2-trifluoroethoxy)-1H-pyrazol-4-yl)pyrimidin-2-amine] yielded a 50% inhibitory concentration (IC50) in test [2] (setting [5]) of under 10 nM. The inhibition in vivo at 30 mg/kg in test [3] (2 hr after administration) is over 50%.

For `C[C@@H](Cn1cnnn1)Oc1cc(-c2cnc(Nc3cn(C4CC5(C4)CN(C4CCOCC4)C5)nc3OCC(F)(F)F)nc2)ccc1Cl` [Example 795, (S)-5-(3-((1-(1H-tetrazol-1-yl)propan-2-yl)oxy)-4-chlorophenyl)-N-(1-(2-(tetrahydro-2H-pyran-4-yl)-2-azaspiro[3.3]heptan-6-yl)-3-(2,2,2-trifluoroethoxy)-1H-pyrazol-4-yl)pyrimidin-2-amine], the IC50 in test [2] (setting [5]) was under 10 nM. In test [3] (2 hr after administration), the inhibition in vivo at 30 mg/kg was over 50%.

`C[C@@H](Cn1cnnn1)Oc1cc(-c2cnc(Nc3cn([C@H]4CC[C@H](N5CCOCC5)CC4)nc3OCC(F)F)nc2)ccc1Cl` [Example 806, 5-(3-(((S)-1-(1H-tetrazol-1-yl)propan-2-yl)oxy)-4-chlorophenyl)-N-(3-(2,2-difluoroethoxy)-1-(trans-4-morpholinocyclohexyl)-1H-pyrazol-4-yl)pyrimidin-2-amine]: the IC50 in test [2] (setting [5]) is under 10 nM. Further, the inhibition in vivo at 30 mg/kg in test [3] (2 hr after administration) is over 50%.

Take `C[C@@H](Cn1cnnn1)Oc1cc(-c2cnc(Nc3cn(C4CC5(C4)CN(C4CCOCC4)C5)nc3C(F)(F)F)nc2)ccc1Cl` [Example 831, (S)-5-(3-((1-(1H-tetrazol-1-yl)propan-2-yl)oxy)-4-chlorophenyl)-N-(1-(2-(tetrahydro-2H-pyran-4-yl)-2-azaspiro[3.3]heptan-6-yl)-3-(trifluoromethyl)-1H-pyrazol-4-yl)pyrimidin-2-amine]: the IC50 in test [2] (setting [5]) is under 10 nM. Moreover, in test [3] (4 hr after administration), the inhibition in vivo at 30 mg/kg was over 50%.

For the compound `CC(C)c1nn([C@H]2CC[C@H](N3CCOCC3)CC2)cc1Nc1ncc(-c2ccc(Cl)c(O[C@@H](C)Cn3cnnn3)c2)cn1` [Example 843, 5-(3-(((S)-1-(1H-tetrazol-1-yl)propan-2-yl)oxy)-4-chlorophenyl)-N-(3-isopropyl-1-(trans-4-morpholinocyclohexyl)-1H-pyrazol-4-yl)pyrimidin-2-amine], in test [2] (setting [5]), the IC50 was under 10 nM. In addition, in test [3] (10 mg/kg p.o., 4 hr after administration), the inhibition in vivo at 10 mg/kg is over 50%.

Regarding `C[C@@H](Cn1cnnn1)Oc1cc(-c2cnc(Nc3cn(C4CC5(C4)CN(CC(C)(C)O)C5)nc3OCC(F)(F)F)nc2)ccc1Cl` [Example 946, (S)-1-(6-(4-((5-(3-((1-(1H-tetrazol-1-yl)propan-2-yl)oxy)-4-chlorophenyl)pyrimidin-2-yl)amino)-3-(2,2,2-trifluoroethoxy)-1H-pyrazol-1-yl)-2-azaspiro[3.3]heptan-2-yl)-2-methylpropan-2-ol], in test [2] (setting [6]), the IC50 was under 10 nM. Further, the inhibition in vivo at 30 mg/kg in test [3] (4 hr after administration) was over 50%.

On to `CC(=O)OC(C)(C)CN1CC2(CC(n3cc(Nc4ncc(-c5ccc(Cl)c(O[C@@H](C)Cn6cnnn6)c5)cn4)c(OCC(F)(F)F)n3)C2)C1` [Example 951, 1-[6-(4-{[5-(4-chloro-3-{[(2S)-1-(1H-tetrazol-1-yl)propan-2-yl]oxy}phenyl)pyrimidin-2-yl]amino}-3-(2,2,2-trifluoroethoxy)-1H-pyrazol-1-yl)-2-azaspiro[3.3]heptan-2-yl]-2-methylpropan-2-yl acetate], for which, in test [2] (setting [6]), the IC50 is under 10 nM. Besides, in test [3] (4 hr after administration), the inhibition in vivo at 30 mg/kg is over 50%.
